Values joined by “and” are separate entries in the source; they are usually repeats but may differ in a detail not shown here. Equal values may be shown once.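 These data come from cells grown in 96-well plates and exposed to compound for 48 hours at five concentrations. The concentration for 50% growth inhibition is given as GI50. Definition used: TGI = concentration required for complete inhibition of growth.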
These compounds were tested on MDA-MB-468 breast (assay: NCI anticancer screen, dose series, 48 h).

Point of comparison: `COC1=CC(c2ccc[nH]2)=N/C1=C\c1[nH]c(C)c(C(=O)Oc2ccccc2)c1C`, GI50 0.368 µM. Against it:
- CON=C1C[C@]2(C[C@@H]3C[C@@H](C/C=C(\C)C[C@@H](C)/C=C/C=C4\CO[C@@H]5[C@H](O)C(C)=C[C@@H](C(=O)O3)[C@]45O)O2)O[C@H](/C(C)=C/C(C)C)[C@H]1C — 35-fold higher, 12.8 µM
- CCNC(=O)Oc1ccc(/C(=C(\C)c2ccc(Cl)cc2)c2ccc(OCCN(CC)CC)cc2)cc1 — 9.9-fold higher, 3.63 µM
- CC(C)C(=O)Nc1ccc(-c2nc(-c3cccc(OCCN4CCOCC4)c3)c(-c3ccnc(Br)c3)[nH]2)cc1 — 5.1-fold higher, 1.89 µM
- COc1ccc(Cc2cc(OC)c(OC)c(OC)c2)cc1 — within 1.5-fold, 0.312 µM
- CCN(CC)S(=O)(=O)c1ccc(-c2nc(C(Cl)Cl)nc3cc(-c4ccc(F)cc4)nn23)cc1 — 4.8-fold higher, 1.78 µM
- NS(=O)(=O)c1ccc(N=Nc2c(O)[nH]c3ccc(C(=O)NCCc4cnc[nH]4)cc23)cc1 — higher, > 25 µM
- C[C@]12CCCN1CC1=NNC(=O)c3cc(F)cc4[nH]c2c1c34 — 37-fold higher, 13.5 µM
- Clc1ccc(C2CC(c3cccc(Nc4ccncc4)c3)=NN2c2ccccc2)cc1 (stereo not given) — 4.1-fold higher, 1.51 µM
- CCCCCCCCCCCCNC(=O)N[C@H](C(=O)N[C@H]1/C=C/CCNC(=O)/C=C/[C@H](C)NC1=O)C(C)C — 6.9-fold lower, 0.0531 µM
- Cc1ccc(S(=O)(=O)OCC(=O)Nc2ccc(C(=O)O)c(O)c2)cc1 — 79-fold higher, 29.1 µM
- Cc1cc2c(C(=O)NCC#N)cccc2n1-c1nc2c(c(NCc3ccccc3)n1)CCCC2 — 1.8-fold lower, 0.206 µM
- CCCCCCNC(=O)Oc1ccc(/C(=C(/C)c2ccc(Cl)cc2)c2ccc(OCCN3CCCC3)cc2)cc1 — 4.5-fold higher, 1.66 µM
- Cc1ccc(/C=C(/C#N)n2nnc3ncccc32)cc1 — 6.8-fold higher, 2.49 µM
- c1ccc(COCC[P+](c2ccccc2)(c2ccccc2)c2ccccc2)cc1 — 1.5-fold lower, 0.239 µM
- CC(C)(C)[Si](C)(C)OC1[C@@H](O[Si](C)(C)C(C)(C)C)[C@@H](CNC(=O)NC(=O)NC(=O)CCl)O[C@H]1n1cnc2c(NC(=O)Nc3ccccc3)ncnc21 (stereo not given in full) — 11-fold higher, 3.91 µM
- CCC(CC)c1cc(N[C@H]2CC[C@H](N)C2)n2nccc2n1 — within 1.5-fold, 0.438 µM
- COc1ccc(C2=NN(C=O)C(c3ccc(OS(=O)(=O)c4ccc(C)cc4)c(OC)c3)C2)cc1 (stereo not given) — 3.9-fold higher, 1.44 µM
- COc1ccc2nc3cc(Cl)ccc3c(NCCNCC(O)CO)c2c1 (stereo not given) — 2.6-fold higher, 0.975 µM
- CS(=O)(=O)O[C@H]1C(=O)N(c2cc3c4ccccc4ccc3c3ccccc23)[C@@H]1c1ccccn1 — within 1.5-fold, 0.269 µM
- O=C(CN1CCN(CCN2C(=O)c3cccc4cccc(c34)C2=O)CC1)Nc1ccc2ncsc2c1 — 13-fold higher, 4.79 µM
- Cc1cc(O[C@@H]2O[C@@H](C)[C@H](O)[C@@H](O)[C@H]2O)c2c3c(c(O[C@@H]4O[C@@H](C)[C@H](O)[C@@H](O)[C@H]4O)cc2c1)C(=O)c1c(O)cccc1C3=O — 67-fold higher, 24.5 µM
- CC(=O)OC1CC2C(C)(C)CCC[C@]2(C)C2=C1C(O)=C(C(C)C)C(=O)C2=O (stereo not given in full) — 4.2-fold higher, 1.56 µM

Point of comparison: `COC1=CC(c2ccc[nH]2)=N/C1=C\c1[nH]c(C)c(C(=O)Oc2ccccc2)c1C`, TGI 1.94 µM. Against it:
- CON=C1C[C@]2(C[C@@H]3C[C@@H](C/C=C(\C)C[C@@H](C)/C=C/C=C4\CO[C@@H]5[C@H](O)C(C)=C[C@@H](C(=O)O3)[C@]45O)O2)O[C@H](/C(C)=C/C(C)C)[C@H]1C — 14-fold higher, 27.5 µM
- CCNC(=O)Oc1ccc(/C(=C(\C)c2ccc(Cl)cc2)c2ccc(OCCN(CC)CC)cc2)cc1 — 7.5-fold higher, 14.6 µM
- CC(C)C(=O)Nc1ccc(-c2nc(-c3cccc(OCCN4CCOCC4)c3)c(-c3ccnc(Br)c3)[nH]2)cc1 — 2.1-fold higher, 4.04 µM
- COc1ccc(Cc2cc(OC)c(OC)c(OC)c2)cc1 — higher, > 100 µM
- CCN(CC)S(=O)(=O)c1ccc(-c2nc(C(Cl)Cl)nc3cc(-c4ccc(F)cc4)nn23)cc1 — 3.3-fold higher, 6.46 µM
- NS(=O)(=O)c1ccc(N=Nc2c(O)[nH]c3ccc(C(=O)NCCc4cnc[nH]4)cc23)cc1 — higher, > 25 µM
- C[C@]12CCCN1CC1=NNC(=O)c3cc(F)cc4[nH]c2c1c34 — 18-fold higher, 34.5 µM
- Clc1ccc(C2CC(c3cccc(Nc4ccncc4)c3)=NN2c2ccccc2)cc1 (stereo not given) — 1.6-fold higher, 3.05 µM
- CCCCCCCCCCCCNC(=O)N[C@H](C(=O)N[C@H]1/C=C/CCNC(=O)/C=C/[C@H](C)NC1=O)C(C)C — 8.9-fold lower, 0.218 µM
- Cc1ccc(S(=O)(=O)OCC(=O)Nc2ccc(C(=O)O)c(O)c2)cc1 — 51-fold higher, 98.6 µM
- Cc1cc2c(C(=O)NCC#N)cccc2n1-c1nc2c(c(NCc3ccccc3)n1)CCCC2 — 4.6-fold lower, 0.422 µM
- CCCCCCNC(=O)Oc1ccc(/C(=C(/C)c2ccc(Cl)cc2)c2ccc(OCCN3CCCC3)cc2)cc1 — 1.6-fold higher, 3.17 µM
- Cc1ccc(/C=C(/C#N)n2nnc3ncccc32)cc1 — 5.8-fold higher, 11.2 µM
- c1ccc(COCC[P+](c2ccccc2)(c2ccccc2)c2ccccc2)cc1 — within 1.5-fold, 1.95 µM
- CC(C)(C)[Si](C)(C)OC1[C@@H](O[Si](C)(C)C(C)(C)C)[C@@H](CNC(=O)NC(=O)NC(=O)CCl)O[C@H]1n1cnc2c(NC(=O)Nc3ccccc3)ncnc21 (stereo not given in full) — 5.4-fold higher, 10.5 µM
- CCC(CC)c1cc(N[C@H]2CC[C@H](N)C2)n2nccc2n1 — within 1.5-fold, 2.39 µM
- COc1ccc(C2=NN(C=O)C(c3ccc(OS(=O)(=O)c4ccc(C)cc4)c(OC)c3)C2)cc1 (stereo not given) — 4-fold higher, 7.7 µM
- COc1ccc2nc3cc(Cl)ccc3c(NCCNCC(O)CO)c2c1 (stereo not given) — 1.6-fold higher, 3.16 µM
- CS(=O)(=O)O[C@H]1C(=O)N(c2cc3c4ccccc4ccc3c3ccccc23)[C@@H]1c1ccccn1 — 2.7-fold higher, 5.27 µM
- O=C(CN1CCN(CCN2C(=O)c3cccc4cccc(c34)C2=O)CC1)Nc1ccc2ncsc2c1 — 11-fold higher, 22.3 µM
- Cc1cc(O[C@@H]2O[C@@H](C)[C@H](O)[C@@H](O)[C@H]2O)c2c3c(c(O[C@@H]4O[C@@H](C)[C@H](O)[C@@H](O)[C@H]4O)cc2c1)C(=O)c1c(O)cccc1C3=O — higher, > 30 µM
- CC(=O)OC1CC2C(C)(C)CCC[C@]2(C)C2=C1C(O)=C(C(C)C)C(=O)C2=O (stereo not given in full) — 2-fold higher, 3.81 µM

In the case of `COC(=O)[C@H](Cc1ccccc1)NNC(=O)c1csc([C@@H](C[C@H](C(C)C)N(C)C(=O)[C@@H](NC(=O)[C@H]2CCCCN2C)C2CC2)OC(C)=O)n1`, the GI50 was 0.00652 µM and 0.0025 µM.
For `CC(C)n1nc(C#Cc2cccc(O)c2)c2c(N)ncnc21`, the GI50 was 3.62 µM and 2.22 µM.

For `COC(=O)[C@H](Cc1ccccc1)NNC(=O)c1csc([C@@H](C[C@H](C(C)C)N(C)C(=O)[C@@H](NC(=O)[C@H]2CCCCN2C)C2CC2)OC(C)=O)n1`, the TGI was 25 µM and > 100 µM.
`CC(C)n1nc(C#Cc2cccc(O)c2)c2c(N)ncnc21` was tested, and the TGI was 23.8 µM and 5.51 µM.

— PubChem BioAssay (NCI)
